Results published in patent US9249152B2, “Cyano containing azabenzofuran compounds for the treatment of hepatitis C” (BRISTOL-MYERS SQUIBB COMPANY, priority 2014, dated 2016).
Where two headings read alike, the source gives them in different places.

Columns and labels:
HCV replicon 1a = assay: HCV replicon luciferase assay, genotype 1a; assay type: cell-based; conditions: Hepatitis C virus
HCV = conditions: cited from earlier work
[1] = system: genotype 1b (Con-1) HCV replicon; assay: HCV replicon luciferase assay, genotype 1b (Con-1); assay type: cell-based; conditions: genotype 1b HCV replicon, Huh-7 cells, Renilla luciferase, 3 days
Experimental: The cell lines used to evaluate compounds consist of a human hepatocyte derived cell line (Huh-7) that constitutively expresses a genotype 1b (Con-1) HCV replicon or a genotype 1b (Con-1) HCV replicon with an asparagine replacing the cysteine at amino acid 316, or a genotype 2a (JFH-1) replicon, containing a Renilla luciferase reporter gene. These cells were maintained in Dulbecco's modified Eagle medium (DMEM) containing 10% FBS, 100 U/mL penicillin/streptomycin and 1.0 mg/mL G418.
To evaluate compound efficacy, titrated compounds were transferred to sterile 384-well tissue culture treated plates, and the plates were seeded with HCV replicon cells (50 μL at a density of 2.4×10^3 cells/well) in DMEM containing 4% FBS (final DMSO concentration at 0.5%). After 3 days incubation at 37° C., cells were analyzed for Renilla Luciferase activity using the EnduRen substrate (Promega cat #E6485) according to the manufacturer's directions. Briefly, the EnduRen substrate was diluted in DMEM and then added to the plates to a final concentration of 7.5 μM. The plates were incubated for at least 1 h at 37° C. then read on a Viewlux Imager (PerkinElmer) using a luminescence program. The 50% effective concentration (EC50) was calculated using the four-parameter logistic formula noted above.

[2] = Hepatitis C virus, Huh-7, 72 h, read-out: EC50 1b (class)
[3] = Hepatitis C virus, Huh-7, 72 h, read-out: EC50 (uM) 1b

Compound | EC50 [1, 2] | also measured
CNC(=O)c1c(-c2ccc(F)cc2)oc2nc(OCC(F)(F)F)c(-c3cccc(C(=O)NC(C)(C)C#N)c3)cc12 [Compound K9001, 5-(3-((2-cyanopropan-2-yl)carbamoyl)phenyl)-2-(4-fluorophenyl)-N-methyl-6-(2,2,2-trifluoroethoxy)furo[2,3-b]pyridine-3-carboxamide] | – | EC50 (HCV replicon 1a; read-out: EC50 for 1a instead): 17.7 nM; EC50 (HCV replicon 1a; read-out: EC50 for 1a instead (class)): < 100 nM
alpha-interferon and ribavirin | – | sustained efficacy, share of patients (HCV; patients): 40%
CNC(=O)c1c(-c2ccc(F)cc2)oc2nc(CCC(F)(F)F)c(-c3ccc(F)c(C(=O)NC(C)C#N)c3)cc12 (centres unmarked) [Compound 13004] | – | EC50 ([1]; read-out: EC50 1b (class)): < 0.1 µM
CNC(=O)c1c(-c2ccc(F)cc2)oc2nc(NCC(F)(F)C(F)(F)F)c(-c3ccc(OC)c(C(=O)NC(C)(C#N)C(C)C)c3)cc12 (centres unmarked) [Compound 31001] | < 0.1 µM | –
CNC(=O)c1c(-c2ccc(F)cc2)oc2nc(NCC(F)(F)C(F)(F)F)c(-c3cccc(C(=O)NC4(C#N)CCCC4)c3)cc12 [Compound 30003] | < 0.1 µM | –
CNC(=O)c1c(-c2ccc(F)cc2)oc2nc(NCC(F)(F)F)c(-c3ccc(F)c(C(=O)NC(C)C#N)c3)cc12 (centres unmarked) [Compound 22001] | < 0.1 µM | EC50 [1, 3]: 0.0055 µM
CNC(=O)c1c(-c2ccc(F)cc2)oc2nc(NCC(F)(F)F)c(-c3ccc(F)c(C(=O)NC4(C#N)CC4)c3)cc12 [Compound K2002] | < 0.1 µM | EC50 [1, 3]: 0.0034 µM
[2H]C([2H])([2H])Oc1ncc(-c2cc3c(C(=O)NC)c(-c4ccc(F)cc4)oc3nc2CCC(F)(F)F)cc1C(=O)NC(C)(C#N)C1CC1 (centres unmarked) [Compound 18001] | < 0.1 µM | EC50 [1, 3]: 0.0037 µM
CNC(=O)c1c(-c2ccc(F)cc2)oc2nc(CCC(F)(F)F)c(-c3cc(C(=O)NC(C)(C#N)C4CC4)ccc3F)cc12 (centres unmarked) [Compound 15001] | < 0.1 µM | –
CNC(=O)c1c(-c2ccc(F)cc2)oc2nc(Cl)c(-c3cccc(C(=O)NC4(C#N)CCCC4)c3)cc12 [Compound 10006] | < 0.1 µM | EC50 [1, 3]: 0.076 µM
CNC(=O)c1c(-c2ccc(F)cc2)oc2nc(NCC(F)(F)F)c(-c3ccc(F)c(C(=O)NC(C)(C#N)C4CC4)c3)cc12 (centres unmarked) [Compound 22006] | – | EC50 ([1]; read-out: EC50 1b (class)): < 0.1 µM
CNC(=O)c1c(-c2ccc(F)cc2)oc2nc(CCC(F)(F)F)c(-c3cnc(OC)c(C(=O)NC4(C#N)CCCC4)c3)cc12 [Compound K7004] | < 0.1 µM | –
CNC(=O)c1c(-c2ccc(F)cc2)oc2nc(CCC(F)(F)F)c(-c3ccc(F)c(C(=O)NC(C)C#N)c3)cc12 (centres unmarked) [Compound 13005] | – | EC50 ([1]; read-out: EC50 1b (class)): < 0.1 µM
CNC(=O)c1c(-c2ccc(F)cc2)oc2nc(CCC(F)(F)F)c(-c3cccc(C(=O)NC(C)(C#N)C4CC4)c3)cc12 (centres unmarked) [Compound 11007] | – | EC50 ([1]; read-out: EC50 1b (class)): < 0.1 µM; EC50 ([1]; read-out: EC50 (uM) 1b): 0.0027 µM
CNC(=O)c1c(-c2ccc(F)cc2)oc2nc(CCC(F)(F)F)c(-c3ccc(OC)c(C(=O)NC(C)(C)C#N)c3)cc12 [Compound 12001] | < 0.1 µM | EC50 [1, 3]: 0.0025 µM
CNC(=O)c1c(-c2ccc(F)cc2)oc2nc(CCC(F)(F)F)c(-c3cc(C(=O)NC(C)(C)C#N)ccc3F)cc12 [Compound 15002] | < 0.1 µM | EC50 [1, 3]: 0.0042 µM
CNC(=O)c1c(-c2ccc(F)cc2)oc2nc(NCC(F)(F)F)c(-c3ccc(F)c(C(=O)NC(C)(C#N)C(C)C)c3)cc12 (centres unmarked) [Compound K2005] | < 0.1 µM | –
CNC(=O)c1c(-c2ccc(F)cc2)oc2nc(CCC(F)(F)F)c(-c3cccc(C(=O)NC(C)(C#N)C(C)C)c3)cc12 (centres unmarked) [Compound 11004] | < 0.1 µM | –
CNC(=O)c1c(-c2ccc(F)cc2)oc2nc(CCC(F)(F)F)c(-c3cccc(C(=O)NC(C)(C#N)C4CC4)c3)cc12 (centres unmarked) [Compound 11005] | < 0.1 µM | –
CNC(=O)c1c(-c2ccc(F)cc2)oc2nc(CCC(F)(F)F)c(-c3ccc(OC)c(C(=O)NC4(C#N)CCC4)c3)cc12 [Compound 12002] | < 0.1 µM | –

Compound | EC50 [1, 2] | also measured
CNC(=O)c1c(-c2ccc(F)cc2)oc2nc(NCC(F)(F)C(F)(F)F)c(-c3ccc(OC)c(C(=O)NC(C)(C#N)C4CC4)c3)cc12 (centres unmarked) [Compound 31002] | < 0.1 µM | EC50 [1, 3]: 0.0061 µM
CNC(=O)c1c(-c2ccc(F)cc2)oc2nc(CCC(F)(F)F)c(-c3cnc(OC)c(C(=O)NC4(C#N)CC4)c3)cc12 [Compound K7003] | < 0.1 µM | –
CNC(=O)c1c(-c2ccc(F)cc2)oc2nc(Cl)c(-c3ccc(OC)c(C(=O)NC4(C#N)CCC4)c3)cc12 [Compound 10002] | < 0.1 µM | –
CNC(=O)c1c(-c2ccc(F)cc2)oc2nc(NCC(F)(F)F)c(-c3ccc(F)c(C(=O)NC(C)C#N)c3)cc12 (centres unmarked) [Compound 22003] | – | EC50 ([1]; read-out: EC50 1b (class)): < 0.1 µM
CNC(=O)c1c(-c2ccc(F)cc2)oc2nc(NCC(F)(F)F)c(-c3cccc(C(=O)NC4(C#N)CC4)c3)cc12 [Compound K4003] | < 0.1 µM | EC50 [1, 3]: 0.0043 µM
CNC(=O)c1c(-c2ccc(F)cc2)oc2cc(N(CCO)S(C)(=O)=O)c(C3CC3)cc12 [HCV-796] | – | hepatic toxicity (HCV; extended dosing of the combination regimens): hepatic toxicity observed during extended dosing of the combination regimens; HCV RNA levels in patients (HCV; patients, single agent or combined with interferon and ribavirin): reduce HCV RNA levels in patients
CNC(=O)c1c(-c2ccc(F)cc2)oc2nc(CCC(F)(F)F)c(-c3cc(F)cc(C(=O)NC(C)(C#N)C4CC4)c3)cc12 (centres unmarked) [Compound 14002] | < 0.1 µM | –
CNC(=O)c1c(-c2ccc(F)cc2)oc2nc(CCC(F)(F)F)c(-c3ccc(OC)c(C(=O)NC4(C#N)CC4)c3)cc12 [Compound K6001] | < 0.1 µM | –
CNC(=O)c1c(-c2ccc(F)cc2)oc2nc(Cl)c(-c3ccc(OC)c(C(=O)NC(C)(C)C#N)c3)cc12 [Compound 10001] | < 0.1 µM | EC50 [1, 3]: 0.0738 µM
CC[C@@H](C)c1nc2oc(-c3ccc(F)cc3)c(C(=O)NC)c2cc1-c1cccc(C(=O)NC(C)(C)C#N)c1 [Compound K11002] | < 0.1 µM | EC50 [1, 3]: 0.0044 µM
CNC(=O)c1c(-c2ccc(F)cc2)oc2nc(NCC(F)(F)F)c(-c3cccc(C(=O)NC4(C#N)CCCC4)c3)cc12 [Compound K4001] | < 0.1 µM | –
CNC(=O)c1c(-c2ccc(F)cc2)oc2nc(CCC(F)(F)F)c(-c3ccc(F)c(C(=O)NC(C)(C)C#N)c3)cc12 [Compound K1003] | < 0.1 µM | –
CNC(=O)c1c(-c2ccc(F)cc2)oc2nc(CCC(F)(F)F)c(-c3ccc(F)c(C(=O)NC(C)C#N)c3)cc12 (centres unmarked) [Compound 13003] | < 0.1 µM | –
CNC(=O)c1c(-c2ccc(F)cc2)oc2nc(NCC(F)(F)F)c(-c3cc(F)cc(C(=O)NC(C)(C#N)C4CC4)c3)cc12 (centres unmarked) [Compound 23001] | < 0.1 µM | –
CNC(=O)c1c(-c2ccc(F)cc2)oc2nc(NCC(F)(F)F)c(-c3cccc(C(=O)NC4(C#N)CCC4)c3)cc12 [Compound K4002] | < 0.1 µM | –
CNC(=O)c1c(-c2ccc(F)cc2)oc2nc(CCC(F)(F)F)c(-c3cc(Cl)c(Cl)c(C(=O)NC(C)(C)C#N)c3)cc12 [Compound 16001] | < 0.1 µM | –
CNC(=O)c1c(-c2ccc(F)cc2)oc2nc(NCC(F)(F)F)c(-c3ccc(F)c(C(=O)NC4(C#N)CCCC4)c3)cc12 [Compound K2004] | < 0.1 µM | –
CNC(=O)c1c(-c2ccc(F)cc2)oc2nc(CCC(F)(F)F)c(-c3cccc(C(=O)NC(C)(C#N)CF)c3)cc12 (centres unmarked) [Compound 11012] | < 0.1 µM | –
CNC(=O)c1c(-c2ccc(F)cc2)oc2nc(CCC(F)(F)F)c(-c3ccc(F)c(C(=O)NC(C)(C#N)C4CC4)c3)cc12 (centres unmarked) [Compound 13006] | < 0.1 µM | EC50 [1, 3]: 0.0036 µM
